pIC50: −log10 of the molar value. Read-outs that look alike come from different tables or passages of the source.
Columns and labels:
K562 cells [1] = assay: cell viability (XTT) of imatinib-sensitive K562 cells; assay type: cell-based, human; conditions: K562; for pIC50 / viability at 500 µM: Homo sapiens, XTT; for pIC50: dose-response 5, 10, 25 and 50 μM; for viability at 500 µM: 0.5 mM, read-out: percentage of viable cells; for efficacy in dose-response experiment (number of viable cells): 5, 10, 25 and 50 μM, compounds effective at concentrations as low as 5 μM
Procedure: (§1) The K562 leukemic cell line is obtained from the pleural effusion of a patient with CML. This line is a good model for studying this disease. […] The K562 and ImaR cells are cultivated at 37° C. under 5% CO2 in an RPMI 1640 medium containing 5% fetal bovine serum and supplemented with sodium pyruvate and antibiotics (penicillin-streptomycin).
(§2) FIGS. 1 to 4 reflect the study of the cell viability.
(§3) After the addition of XTT reagent, the absorbance is measured at 490 nm.
as §3, §3
After adding XTT reagent, the absorbance is measured at 490 nm.

ImaR cells [2] = assay: cell viability (XTT) of imatinib-resistant ImaR cells; assay type: cell-based, human; conditions: for efficacy in dose-response experiment (number of viable cells): 5, 10, 25 and 50 μM, compounds effective at concentrations as low as 5 μM; for viability at 500 µM / pIC50: Homo sapiens, XTT; for viability at 500 µM: 0.5 mM, 24 hours, read-out: percentage of viable cells; for pIC50: dose-response 5, 10, 25 and 50 μM, 24 or 48 hours, Example 1 (Table 1 codes)
Procedure: as §1, §2, §3, §3

[3] = test system: imatinib-resistant CML K562 cells; assay: tumor growth of imatinib-resistant CML K562 cells in athymic nude mice; assay type: in vivo; conditions: 1 mg/kg; for Mean weight of the mice on the day of sacrifice: control group 18.63, in g (unit assumed); for Mass of tumors at the end of the campaign (% vs. control): sum of tumor masses on the day of sacrifice
Procedure: The three compounds (86, 196 and 236) were tested at 1 mg/kg on the tumor growth of imatinib-resistant CML K562 cells in athymic nude mice. The tumors of the mice of each group are weighed on the day of sacrifice, and the sum of these masses constitutes a tumor growth index. This index is expressed as a percentage with respect to the growth of the control group (second line).

K562 cells [4] = assay: western blot of apoptosis and autophagy markers, K562 cells; assay type: cell-based, human; conditions: for expression of p62/SQSTM1: 82, 86, 112 at 2.5 μM, 15, 23, 191 at 10 μM; for type of programmed cell death induced: conclusion of Example 1, K562 and ImaR cells
Procedure: (§4) The cells are lyzed and 35 μg of proteins are separated by SDS-PAGE (12 or 14% polyacrylamide gel) and analyzed by western blot with antibodies specific to each of the markers.

ImaR cells [5] = assay: flow cytometry analysis of the cell cycle, ImaR cells; assay type: cell-based, human
Procedure: (§5) The x-axis of the graph of FIG. 9 corresponds to the quantity of DNA marked with propidium iodide while the y-axis corresponds to the number of cells. […] The nucleii are marked with propidium iodide, then the proportion of cells in the different phases of the cell cycle (subG1, G0/G1, S, G2/M) is determined.

K562 cells [6] = assay: flow cytometry analysis of the cell cycle, K562 cells; assay type: cell-based, human
Procedure: as §5, with “nuclei” for “nucleii”

ImaR cells [7] = assay: western blot of apoptosis and autophagy markers, ImaR cells; assay type: cell-based, human; conditions: 24 hours; for expression of p62/SQSTM1: AICAR 1 mM, 82, 86, 112 at 2.5 μM, 15, 23, 191 at 10 μM
Procedure: as §4

caspase-9 [8] = assay: caspase-9 activity (Ac-LEHD-AMC) in ImaR cells; assay type: cell-based, human; conditions: 24 hours, imatinib 3 μM, 112 2.5 μM, 15 and 23 10 μM
Procedure: (§6) The cells are lyzed and the caspase-9 activities are measured using 10 μg of proteins and Ac-LEHD-AMC. The fluorescence emission at 460 nm resulting from the release of AMC is then recorded.

caspase-9 [9] = assay: caspase-9 activity (Ac-LEHD-AMC) in K562 cells; assay type: cell-based, human
Procedure: as §6

[10] = 48 hours, Example 2 (Table 2 codes)
[11] = 24 or 48 hours, Example 1 (Table 1 codes)
[12] = 24 hours, 82, 86, 112 at 2.5 μM, 15, 23, 191, 49 at 10 μM
[13] = 24 hours, imatinib 3 μM, 112 at 2.5 μM, 15, 23, 49 at 10 μM

CCCCCCC(=O)c1c(C(=O)OCC)nnn1[C@@H]1O[C@H](COC(C)=O)[C@@H](OC(C)=O)[C@H]1OC(C)=O [Compound 30, 1′-(4-ethoxycarbonyl-5-heptanoyl-[1,2,3]-triazol-1-yl)-2′,3′,5′-tri-O-acetyl-β-D-ribofuranose]
pIC50 (K562 cells [1]; [10]): ~5.30

CCOC(=O)c1nnn([C@@H]2O[C@H](COC(C)=O)[C@@H](OC(C)=O)[C@H]2OC(C)=O)c1C(=O)c1ccc(C)cc1 [Compound 32, 1′-(4-ethoxycarbonyl-5-p-toluoyl-[1,2,3]-triazol-1-yl)-2′,3′,5′-tri-O-acetyl-β-D-ribofuranose]
viability at 500 µM (K562 cells [1]; [10]): < 20%

CCOC(=O)c1nnn([C@@H]2O[C@H](COC(C)=O)[C@@H](OC(C)=O)[C@H]2OC(C)=O)c1-c1ccccc1 [Compound 86, 1′-(4-ethoxycarbonyl-5-phenyl-[1,2,3]-triazol-1-yl)-2′,3′,5′-tri-O-acetyl-β-D-ribofuranose]
efficacy in dose-response experiment (number of viable cells) (ImaR cells [2]): particularly effective
viability at 500 µM (ImaR cells [2]): < 10%
pIC50 (ImaR cells [2]): ~5.60
viability at 500 µM (K562 cells [1]; 24 hours): < 10%
pIC50 (K562 cells [1]; [11]): ~5.60
efficacy in dose-response experiment (number of viable cells) (K562 cells [1]): particularly effective
Mean weight of the mice on the day of sacrifice [3]: 18.43
Mass of tumors at the end of the campaign (% vs. control) [3]: 69.6 % vs. control
expression of p62/SQSTM1 (K562 cells [4]; K562, 24 hours, AICAR 1 mM): increase in the expression
LC3 cleavage (LC3-I into LC3-II) (K562 cells [4]; K562, 24 hours, AICAR 1 mM, 82, 86 at 2.5 μM, 15, 23, 191, 49 at 10 μM): cleaved
type of programmed cell death induced (K562 cells [4]): autophagy alone
proportion of cells in the G2/M phase (ImaR cells [5]; [12]): increase
proportion of cells in the G2/M phase (K562 cells [6]; [12]): increase
expression of p62/SQSTM1 (ImaR cells [7]): increase in the expression
LC3 cleavage (LC3-I into LC3-II) (ImaR cells [7]; AICAR 1 mM, 82, 86 at 2.5 μM, 15, 23, 191, 49 at 10 μM): cleaved

CCOC(=O)C#Cc1c(C(=O)OCC)nnn1Cc1ccc(C)cc1 [Compound 112, 1-(4-methylbenzyl)-4-ethoxycarbonyl-5-ethyl propiolate-1,2,3-triazole]
efficacy in dose-response experiment (number of viable cells) (ImaR cells [2]): particularly effective
viability at 500 µM (ImaR cells [2]): < 10%
pIC50 (ImaR cells [2]): ~5.60
caspase-9 activity (caspase-9 [8]): activation
viability at 500 µM (K562 cells [1]; 24 hours): < 10%
pIC50 (K562 cells [1]; [11]): ~5.60
efficacy in dose-response experiment (number of viable cells) (K562 cells [1]): particularly effective
caspase-9 activity (caspase-9 [9]; K562, 24 hours, imatinib 3 μM, 112 2.5 μM, 15 and 23 10 μM): activation
pathway relaying the induced apoptosis (caspase-9 [9]; conclusion of Example 1, K562 and ImaR cells): intrinsic pathway
expression of p62/SQSTM1 (K562 cells [4]; K562, 24 hours, AICAR 1 mM): increase in the expression
PARP cleavage (fragment at 85 kDa) (K562 cells [4]; K562, 24 hours, imatinib 3 μM, 112 at 2.5 μM, 15, 23, 49 at 10 μM): appearance of the characteristic cleavage fragment at 85 kDa
type of programmed cell death induced (K562 cells [4]): apoptosis alone
cells in phase G0/G1 (ImaR cells [5]; [13]): reduction
cells in the subG1 phase (ImaR cells [5]; [13]): very pronounced accumulation
cells in phase G0/G1 (K562 cells [6]; [13]): reduction
cells in the subG1 phase (K562 cells [6]; [13]): very pronounced accumulation
expression of p62/SQSTM1 (ImaR cells [7]): increase in the expression
PARP cleavage (fragment at 85 kDa) (ImaR cells [7]; imatinib 3 μM, 112 at 2.5 μM, 15, 23, 49 at 10 μM): appearance of the characteristic cleavage fragment at 85 kDa

CCCCCCCC#Cc1c(CCCCCCC)nnn1[C@@H]1O[C@H](COC(C)=O)[C@@H](OC(C)=O)[C@H]1OC(C)=O [Compound 176, 1′-(4-heptyl-5-(non-1-yn-1-yl)-[1,2,3]-triazol-1-yl)-2′,3′,5′-tri-O-acetyl-β-D-ribofuranose]
viability at 500 µM (ImaR cells [2]): < 10%
viability at 500 µM (K562 cells [1]; 24 hours): < 10%

CCOC(=O)C#Cc1c(C(=O)OCC)nnn1C1OC(COC(C)=O)C(OC(C)=O)C(OC(C)=O)C1OC(C)=O [Compound 196, 1′-(4-ethoxycarbonyl-5-ethyl propiolate-[1,2,3]-triazol-1-yl)-2′,3′,4′,6′-tetra-O-acetyl-β-D-glucopyranose]
inhibition of the tumor mass [3]: around 60%
Mean weight of the mice on the day of sacrifice [3]: 20.5
Mass of tumors at the end of the campaign (% vs. control) [3]: 42 % vs. control

CCOC(=O)c1nnn([C@@H]2O[C@H](CO)[C@H]3OC(C)(C)O[C@H]32)c1-c1cccs1 [Compound 236, 1′-(4-ethoxycarbonyl-5-(2-thienyl)-[1,2,3]-triazol-1-yl)-2′,3′-O-isopropylidene-β-D-ribofuranose]
Mean weight of the mice on the day of sacrifice [3]: 20.14
Mass of tumors at the end of the campaign (% vs. control) [3]: 60.3 % vs. control

Source: patent US9173892B2, “Acadesine derivatives, products and compositions including same, therapeutic uses thereof, and methods for synthesizing same” (Universite Nice Sophia Antipolis, priority 2011, dated 2015)
